Test results as given in US20020128311A1, “Halocyanoacetamide antimicrobial compositions” (priority 2000, published 2002).

Experiments:
Format in all cases: physicochemical
[1] = Stability of DBNPA in various solvents, stored at 60° C., HPLC; conditions: for % DBNPA retained: 2.0 g DBNPA + 8.0 g solvent
[2] = Stability of CMIT and DBNPA mixtures in GTA, stored at 50° C., HPLC; conditions: […]% CMIT/MIT mixture
Procedure: Surfactants were TweenTM 20, TritonTM DF-12 or TritonTM CF-10. The compositions were stored at 50° C. for 4 weeks and the concentrations of active ingredients ([…]) in the compositions were determined by HPLC at the indicated time intervals.

[3] = Stability of DCOIT and DBNPA mixtures in GTA, stored at 40° C., HPLC; conditions: 4% DCOIT
Procedure: […] […] Surfactants were TweenTM 20, TritonTM DF-12 or TritonTM CF-10. These compositions were stored at 40° C. for 6 weeks and the concentrations of active ingredients ([…]) in the compositions were determined by HPLC at the indicated time intervals.

[4] = Freeze/thaw stability of DCOIT/DBNPA/surfactant/GTA compositions, HPLC; conditions: for % DBNPA retained after Freezing and Thawing: thawed at 25° C. 5 hours, three times
Procedure: Samples were prepared to test the freeze/thaw stability of compositions of the present invention. The freeze/thaw test was conducted for compositions of […], surfactant and GTA prepared in Example 4. Samples (20 g each) were stored at -10° C. or -25° C. for 19 hours to be frozen; samples were then stored at 25° C. for 5 hours to be thawed. This sequence was repeated three times. Then the concentrations of active ingredients ([…]) in the compositions were determined by HPLC.

In the case of `N#CC(Br)(Br)C(N)=O` [DBNPA, 2,2-dibromo-3-nitrilopropionamide], the “% retained” value ([1]; after 4 weeks in glycol, amide, ether and ketone solvents) is reported as “less than 50%”, the “% DBNPA retained” value ([1]; solvent 62% dipropylene glycol in water (comparative), 1 week) is reported as 95% and the “% DBNPA retained” value ([1]; solvent 62% dipropylene glycol in water (comparative), 4 weeks) is reported as 20%. The “% DBNPA retained” value ([1]; solvent 75% dipropylene glycol in water (comparative), 1 week) was 79%, the “% DBNPA retained” value ([1]; solvent 86% dipropylene glycol in water (comparative), 1 week) was 49% and the “% DBNPA retained” value ([1]; solvent GTA, 1 week) was 92%. The “% DBNPA retained” value ([1]; solvent GTA, 2 weeks) was 100%, the “% DBNPA retained” value ([1]; solvent GTA, 3 weeks) was 100% and the “% DBNPA retained” value ([1]; solvent GTA, 4 weeks) was 100%. The “% DBNPA retained” value ([1]; solvent PGMEA (comparative), 1 week) was 80%, the “% DBNPA retained” value ([1]; solvent PGMEA (comparative), 2 weeks) was 65% and the “% DBNPA retained” value ([1]; solvent PGMEA (comparative), 3 weeks) was 61%. The “% DBNPA retained” value ([1]; solvent PGMEA (comparative), 4 weeks) was 45%, the “% DBNPA retained” value ([1]; solvent diethyl phthalate, 1 week) was 100% and the “% DBNPA retained” value ([1]; solvent diethyl phthalate, 2 weeks) was 98%. The “% DBNPA retained” value ([1]; solvent diethyl phthalate, 3 weeks) was 98%, the “% DBNPA retained” value ([1]; solvent diethyl phthalate, 4 weeks) was 98% and the “% DBNPA retained” value ([1]; solvent dimethyl formamide (comparative), 1 week) was 73%. For the same compound, the “% DBNPA retained” value ([1]; solvent dimethyl formamide (comparative), 2 weeks) was 46%, the “% DBNPA retained” value ([1]; solvent ethyl acetate, 1 week) was 100% and the “% DBNPA retained” value ([1]; solvent ethyl acetate, 2 weeks) was 100%. The “% DBNPA retained” value ([1]; solvent ethyl acetate, 3 weeks) was 100%, the “% DBNPA retained” value ([1]; solvent ethyl acetate, 4 weeks) was 100% and the “% DBNPA retained” value ([1]; solvent methyl amyl ketone (comparative), 1 week) was 9%. For the same compound, the “% DBNPA retained” value ([1]; solvent methyl amyl ketone (comparative), 2 weeks) was 12%, the “% DBNPA retained” value ([1]; solvent methyl amyl ketone (comparative), 3 weeks) was 0% and the “% DBNPA retained” value ([1]; solvent octyl pyrrolidone (comparative), 1 week) was 62%. For the same compound, the “% DBNPA retained” value ([1]; solvent octyl pyrrolidone (comparative), 2 weeks) was 50%, the “% DBNPA retained” value ([1]; solvent octyl pyrrolidone (comparative), 3 weeks) was 45% and the “% DBNPA retained” value ([1]; solvent triethylene glycol dimethyl ether (comparative), 1 week) was 15%. The “% DBNPA retained” value ([1]; solvent triethylene glycol dimethyl ether (comparative), 2 weeks) was 0%, the “% DBNPA retained” value ([2]; 5% Triton CF-10, 45% GTA, 0 Time) was 100% and the “% DBNPA retained” value ([2]; 5% Triton CF-10, 45% GTA, 1 Week) was 97%. For the same compound, the “% DBNPA retained” value ([2]; 5% Triton CF-10, 45% GTA, 2 Weeks) was 93%, the “% DBNPA retained” value ([2]; 5% Triton CF-10, 45% GTA, 3 Weeks) was 77% and the “% DBNPA retained” value ([2]; 5% Triton CF-10, 45% GTA, 4 Weeks) was 69%. For the same compound, the “% DBNPA retained” value ([2]; 5% Triton DF-12, 45% GTA, 0 Time) was 100%, the “% DBNPA retained” value ([2]; 5% Triton DF-12, 45% GTA, 1 Week) was 98% and the “% DBNPA retained” value ([2]; 5% Triton DF-12, 45% GTA, 2 Weeks) was 95%. The “% DBNPA retained” value ([2]; 5% Triton DF-12, 45% GTA, 3 Weeks) was 73%, the “% DBNPA retained” value ([2]; 5% Triton DF-12, 45% GTA, 4 Weeks) was 68% and the “% DBNPA retained” value ([2]; 5% Tween 20, 45% GTA, 0 Time) was 100%. The “% DBNPA retained” value ([2]; 5% Tween 20, 45% GTA, 1 Week) was 97%, the “% DBNPA retained” value ([2]; 5% Tween 20, 45% GTA, 2 Weeks) was 71% and the “% DBNPA retained” value ([2]; 5% Tween 20, 45% GTA, 3 Weeks) was 61%. The “% DBNPA retained” value ([2]; 5% Tween 20, 45% GTA, 4 Weeks) was 54%, the “% DBNPA retained” value ([2]; no surfactant, 50% GTA, 0 Time) was 100% and the “% DBNPA retained” value ([2]; no surfactant, 50% GTA, 1 Week) was 98%. The “% DBNPA retained” value ([2]; no surfactant, 50% GTA, 2 Weeks) was 90%, the “% DBNPA retained” value ([2]; no surfactant, 50% GTA, 3 Weeks) was 85% and the “% DBNPA retained” value ([2]; no surfactant, 50% GTA, 4 Weeks) was 78%. The “% DBNPA retained” value ([3]; 5% Triton CF-10, 66% GTA, 4 Weeks) was 93.5%, the “% DBNPA retained” value ([3]; 5% Triton CF-10, 66% GTA, 6 Weeks) was 91.2% and the “% DBNPA retained” value ([3]; 5% Triton CF-10, 66% GTA, Time 0) was 100.0%. The “% DBNPA retained” value ([3]; 5% Triton DF-12, 66% GTA, 4 Weeks) was 92.3%, the “% DBNPA retained” value ([3]; 5% Triton DF-12, 66% GTA, 6 Weeks) was 92.0% and the “% DBNPA retained” value ([3]; 5% Triton DF-12, 66% GTA, Time 0) was 100.0%. The “% DBNPA retained” value ([3]; 5% Tween 20, 66% GTA, 4 Weeks) was 93.3%, the “% DBNPA retained” value ([3]; 5% Tween 20, 66% GTA, 6 Weeks) was 92.1% and the “% DBNPA retained” value ([3]; 5% Tween 20, 66% GTA, Time 0) was 100.0%. For the same compound, the “% DBNPA retained after Freezing and Thawing” value ([4]; Example 4 composition with Triton CF-10, frozen at −10° C. 19 hours) was 98.8%, the “% DBNPA retained after Freezing and Thawing” value ([4]; Example 4 composition with Triton CF-10, frozen at −25° C. 19 hours) was 98.8% and the “% DBNPA retained after Freezing and Thawing” value ([4]; Example 4 composition with Triton DF-12, frozen at −10° C. 19 hours) was 98.8%. For the same compound, the “% DBNPA retained after Freezing and Thawing” value ([4]; Example 4 composition with Triton DF-12, frozen at −25° C. 19 hours) was 99%, the “% DBNPA retained after Freezing and Thawing” value ([4]; Example 4 composition with Tween 20, frozen at −10° C. 19 hours) was 99.2% and the “% DBNPA retained after Freezing and Thawing” value ([4]; Example 4 composition with Tween 20, frozen at −25° C. 19 hours) was 99.1%. For the same compound, the “physical stability (appearance) during freeze/thaw cycling” value ([4]; in GTA solutions in the presence of surfactants) was “clear solution, no precipitation or phase separation observed”.
